Experimental findings from patent US9393271B2, “GHRH agonists for islet cell transplantation and function and the treatment of diabetes” (UNIVERSITY OF MIAMI, priority 2012, dated 2016) are described below.

Test [1] deals with T1, GHRH receptor (human pituitary membrane homogenates) (Homo sapiens, UniProt Q02643).
T1 sequence (Q02643 23-423): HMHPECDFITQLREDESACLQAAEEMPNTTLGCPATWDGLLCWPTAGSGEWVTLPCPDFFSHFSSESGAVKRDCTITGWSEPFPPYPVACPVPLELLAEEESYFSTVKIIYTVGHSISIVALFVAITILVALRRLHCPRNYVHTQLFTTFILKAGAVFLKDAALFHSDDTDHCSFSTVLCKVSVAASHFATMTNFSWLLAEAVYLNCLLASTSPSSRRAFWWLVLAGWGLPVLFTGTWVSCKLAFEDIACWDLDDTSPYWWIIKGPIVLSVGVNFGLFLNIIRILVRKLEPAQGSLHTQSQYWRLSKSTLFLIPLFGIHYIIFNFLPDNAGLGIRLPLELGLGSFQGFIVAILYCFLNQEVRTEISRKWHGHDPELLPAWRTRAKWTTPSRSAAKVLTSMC
Briefly: GHRH receptor binding, ligand competition with 125I-labeled [His1,Nle27]hGHRH(1-32)NH2 (Table 6). The conditions noted are these: GHRH(1-29) = 1.

Test [2] deals with T1, GHRH receptor (human pituitary membrane homogenates). Briefly: GHRH receptor binding, ligand competition with 125I-labeled JV-1-42 (Table 7). Also noted: Normal human pituitaries were purchased from the National Hormone and Peptide Program; tissue National Hormone and Peptide Program (A. F. Parlow, Harbor-UCLA Medical Center, Torrance, Calif.); host or cells: normal human pituitary, membrane fraction / homogenate. The following applies: JI-38 = 1.

In another test the test system is GH level. Description: In vivo endocrine activity (GH release), subcutaneous administration. The conditions noted are these: rat; for GH releasing potency relative to JI-38 (=1): s.c. injection. The procedure: Subcutaneous Administration. Adult male rats were used and anesthetized with pentobarbital (6 mg/100 g, b.w.), by i.p. injection. […] Blood samples were taken from the jugular vein 5, 15 and/or 30 minutes after the injection. The blood samples were centrifuged, plasma was removed and the GH level was measured by ELISA. The results are summarized in terms of potency in Table 9.

Non-standard residues stand in square brackets, D forms with d. Residues, ends and D or L forms follow the SMILES beside them. *: point of attachment. Phe(F5) = N[C@@H](Cc1c(F)c(F)c(F)c(F)c1F)C(=O)O; Desaminotyrosyl = O=C(CCc1ccc(O)cc1)*; NMeY = CN[C@@H](Cc1ccc(O)cc1)C(=O)O; Agmatine = N=C(N)NCCCCN*; Nle = CCCC[C@H](N)C(=O)O; Orn = NCCC[C@H](N)C(=O)O; Abu = CC[C@H](N)C(=O)O; Ava = NCCCCC(=O)O; GABA = NCCCC(=O)O

As for `CCCC[C@H](NC(=O)[C@@H](NC(=O)[C@H](CC(=O)O)NC(=O)[C@H](CCC(N)=O)NC(=O)[C@H](CC(C)C)NC(=O)[C@H](CC(C)C)NC(=O)[C@H](CCCN)NC(=O)[C@H](CCCNC(=N)N)NC(=O)[C@H](C)NC(=O)[C@H](CO)NC(=O)[C@H](CC(C)C)NC(=O)[C@H](CCC(N)=O)NC(=O)[C@H](CC)NC(=O)[C@H](CC(C)C)NC(=O)[C@@H](NC(=O)[C@H](CCCN)NC(=O)[C@H](CCCNC(=N)N)NC(=O)[C@H](Cc1ccc(O)cc1)NC(=O)[C@H](CO)NC(=O)[C@H](CC(N)=O)NC(=O)[C@@H](NC(=O)[C@H](Cc1ccccc1)NC(=O)[C@@H](NC(=O)[C@H](C)NC(=O)[C@H](CC(=O)O)NC(=O)[C@H](C)NC(=O)CCc1ccc(O)cc1)[C@@H](C)CC)[C@@H](C)O)C(C)C)[C@@H](C)CC)C(=O)N[C@@H](CC(=O)O)C(=O)NCCCCNC(=N)N` [JI-34, reference compound] (Desaminotyrosyl-ADAIFTNSYR[Orn]VL[Abu]QLSAR[Orn]LLQDI[Nle]D-Agmatine; N-terminus and C-terminus assumed), in test [1], the “Relative affinitiy (Binding potency) vs GHRH” value amounted to 4.32.

For the compound `CCCC[C@H](NC(=O)[C@@H](NC(=O)[C@H](CC(=O)O)NC(=O)[C@H](CCC(N)=O)NC(=O)[C@H](CC(C)C)NC(=O)[C@H](CC(C)C)NC(=O)[C@H](CCCN)NC(=O)[C@H](CCCNC(=N)N)NC(=O)[C@H](C)NC(=O)[C@H](CO)NC(=O)[C@H](CC(C)C)NC(=O)[C@H](CCC(N)=O)NC(=O)[C@H](CC)NC(=O)[C@H](CC(C)C)NC(=O)[C@@H](NC(=O)[C@H](CCCN)NC(=O)[C@H](CCCNC(=N)N)NC(=O)[C@H](Cc1ccc(O)cc1)NC(=O)[C@H](CO)NC(=O)[C@H](CCC(N)=O)NC(=O)[C@@H](NC(=O)[C@H](Cc1ccccc1)NC(=O)[C@@H](NC(=O)[C@H](C)NC(=O)[C@H](CC(=O)O)NC(=O)[C@@H](C)NC(=O)[C@H](Cc1ccc(O)cc1)NC)[C@@H](C)CC)[C@@H](C)O)C(C)C)[C@@H](C)CC)C(=O)N[C@@H](CC(=O)O)C(=O)N[C@@H](CCCNC(=N)N)C(=O)NCCCCC(N)=O` [Peptide P-22325, [N—Me-Tyr^1, Gln^8, Orn^12, Abu^15, Orn^21, Nle^27, Asp^28, Apa^30]hGHRH (1-30)NH2] (H-[NMeY][dA]DAIFTQSYR[Orn]VL[Abu]QLSAR[Orn]LLQDI[Nle]DR[Ava]-NH2), the “Relative affinitiy (Binding potency) vs JI-38” value (shortened to “Relative affinitiy … vs JI-38”) in test [2] is 1.14. For the same compound, the results for the “GH releasing potency relative to JI-38 (=1)” value in the test with GH level (5 min after), with GH level (15 min after) and in the test with GH level (30 min after) were 0.33, 0.68 and 1.03, respectively.

On to `CCCC[C@H](NC(=O)[C@@H](NC(=O)[C@H](CC(=O)O)NC(=O)[C@H](CCC(N)=O)NC(=O)[C@H](CC(C)C)NC(=O)[C@H](CC(C)C)NC(=O)[C@H](CCCN)NC(=O)[C@H](CCCNC(=N)N)NC(=O)[C@H](C)NC(=O)[C@H](CO)NC(=O)[C@H](CC(C)C)NC(=O)[C@H](CCC(N)=O)NC(=O)[C@H](CC)NC(=O)[C@H](CC(C)C)NC(=O)[C@@H](NC(=O)[C@H](CCCN)NC(=O)[C@H](CCCNC(=N)N)NC(=O)[C@H](Cc1ccc(O)cc1)NC(=O)[C@H](CO)NC(=O)[C@H](CCC(N)=O)NC(=O)[C@@H](NC(=O)[C@H](Cc1ccccc1)NC(=O)[C@@H](NC(=O)[C@H](C)NC(=O)[C@H](CC(=O)O)NC(=O)[C@@H](C)NC(=O)[C@H](Cc1ccc(O)cc1)NC)[C@@H](C)CC)[C@@H](C)O)C(C)C)[C@@H](C)CC)C(=O)N[C@@H](CC(=O)O)C(=O)N[C@@H](CCCNC(=N)N)C(=O)NCCCCC(N)=O` [Peptide P-22326, [N—Me-Tyr^1, D-Ala^2, Gln^8, Orn^12, Abu^15, Orn^21, Nle^27, Asp^28, Apa^30]hGHRH(1-30)NH2] (H-[NMeY][dA]DAIFTQSYR[Orn]VL[Abu]QLSAR[Orn]LLQDI[Nle]DR[Ava]-NH2), for which, in test [2], the “Relative affinitiy … vs JI-38” value was 6.12. Moreover, the “Stimulation of growth hormone levels after s.c. administration (comparison in words)” value (“Stimulation of growth hormone levels” for short) in the test with GH level is recorded as “stimulated greater growth hormone levels than hGHRH or JI-38”.

With `CCCC[C@H](NC(=O)[C@@H](NC(=O)[C@H](CC(=O)O)NC(=O)[C@H](CCC(N)=O)NC(=O)[C@H](CC(C)C)NC(=O)[C@H](CC(C)C)NC(=O)[C@H](CCCN)NC(=O)[C@H](CCCNC(=N)N)NC(=O)[C@H](C)NC(=O)[C@H](CO)NC(=O)[C@H](CC(C)C)NC(=O)[C@H](CCC(N)=O)NC(=O)[C@H](CC)NC(=O)[C@H](CC(C)C)NC(=O)[C@@H](NC(=O)[C@H](CCCN)NC(=O)[C@H](CCCNC(=N)N)NC(=O)[C@H](Cc1ccc(O)cc1)NC(=O)[C@H](CO)NC(=O)[C@H](CC(N)=O)NC(=O)[C@@H](NC(=O)[C@H](Cc1ccccc1)NC(=O)[C@@H](NC(=O)[C@H](C)NC(=O)[C@H](CC(=O)O)NC(=O)[C@@H](C)NC(=O)[C@H](Cc1ccc(O)cc1)NC)[C@@H](C)CC)[C@@H](C)O)C(C)C)[C@@H](C)CC)C(=O)N[C@@H](CO)C(=O)N[C@@H](CCCNC(=N)N)C(=O)NCCCC(N)=O` [Peptide P-25501, [N—Me-Tyr^1, D-Ala^2, Orn^12, Abu^15, Orn^21, Nle^27, Gab^30]hGHRH(1-30)NH2] (H-[NMeY][dA]DAIFTNSYR[Orn]VL[Abu]QLSAR[Orn]LLQDI[Nle]SR[GABA]-NH2), the “Relative affinitiy … vs JI-38” value in test [2] is 4.07. For the same compound, the “Stimulation of growth hormone levels” value with GH level is recorded as “stimulated greater growth hormone levels than hGHRH or JI-38”.

Take `CCCC[C@H](NC(=O)[C@@H](NC(=O)[C@H](CC(=O)O)NC(=O)[C@H](CCC(N)=O)NC(=O)[C@H](CC(C)C)NC(=O)[C@H](CC(C)C)NC(=O)[C@H](CCCN)NC(=O)[C@H](CCCNC(=N)N)NC(=O)[C@H](C)NC(=O)[C@H](CO)NC(=O)[C@H](CC(C)C)NC(=O)[C@H](CCC(N)=O)NC(=O)[C@H](CC)NC(=O)[C@H](CC(C)C)NC(=O)[C@@H](NC(=O)[C@H](CCCN)NC(=O)[C@H](CCCNC(=N)N)NC(=O)[C@H](Cc1ccc(O)cc1)NC(=O)[C@H](CO)NC(=O)[C@H](CC(N)=O)NC(=O)[C@@H](NC(=O)[C@H](Cc1c(F)c(F)c(F)c(F)c1F)NC(=O)[C@@H](NC(=O)[C@H](C)NC(=O)[C@H](CC(=O)O)NC(=O)[C@@H](C)NC(=O)[C@H](Cc1ccc(O)cc1)NC)[C@@H](C)CC)[C@@H](C)O)C(C)C)[C@@H](C)CC)C(=O)N[C@@H](CC(=O)O)C(=O)N[C@@H](CCCNC(=N)N)C(=O)NC` [Peptide P-27404, [N—Me-Tyr^1, D-Ala^2, Fpa5^6, Orn^12, Abu^15, Orn^21, Nle^27, Asp^28]hGHRH(1-29)NH—CH3] (H-[NMeY][dA]DAI[Phe(F5)]TNSYR[Orn]VL[Abu]QLSAR[Orn]LLQDI[Nle]DR-NHMe): the “Relative affinitiy … vs JI-38” value in test [2] stood at 5.00. The “Stimulation of growth hormone levels” value in the test on GH level is “stimulated greater growth hormone levels than hGHRH or JI-38”. In addition, the figures for the “GH releasing potency relative to JI-38 (=1)” value in the test with GH level (15 min after) and in the test on GH level (30 min after) were 2.07 and 1.47, respectively.

On to `CCCC[C@H](NC(=O)[C@@H](NC(=O)[C@H](CC(=O)O)NC(=O)[C@H](CCC(N)=O)NC(=O)[C@H](CC(C)C)NC(=O)[C@H](CC(C)C)NC(=O)[C@H](CCCN)NC(=O)[C@H](CCCNC(=N)N)NC(=O)[C@H](C)NC(=O)[C@H](CO)NC(=O)[C@H](CC(C)C)NC(=O)[C@H](CCC(N)=O)NC(=O)[C@H](CC)NC(=O)[C@H](CC(C)C)NC(=O)[C@@H](NC(=O)[C@H](CCCN)NC(=O)[C@H](CCCNC(=N)N)NC(=O)[C@H](Cc1ccc(O)cc1)NC(=O)[C@H](CO)NC(=O)[C@H](CC(N)=O)NC(=O)[C@@H](NC(=O)[C@H](Cc1ccccc1)NC(=O)[C@@H](NC(=O)[C@H](C)NC(=O)[C@H](CC(=O)O)NC(=O)[C@@H](C)NC(=O)[C@H](Cc1ccc(O)cc1)NC)[C@@H](C)CC)[C@@H](C)O)C(C)C)[C@@H](C)CC)C(=O)N[C@@H](CC(=O)O)C(=O)N[C@@H](CCCNC(=N)N)C(=O)NC` [Peptide P-27409, [N—Me-Tyr^1, D-Ala^2, Orn^12, Abu^15, Orn^21, Nle^27, Asp^28]hGHRH(1-29)NH—CH3] (H-[NMeY][dA]DAIFTNSYR[Orn]VL[Abu]QLSAR[Orn]LLQDI[Nle]DR-NHMe), for which, in test [2], the “Relative affinitiy … vs JI-38” value is given as 4.10. Also, the “Stimulation of growth hormone levels” value in the test with GH level was “stimulated greater growth hormone levels than hGHRH or JI-38”.
